{
  "source": "patent US20100082097A1",
  "about": "“Article Containing Segregated Biguanide and Lewis Acid” (priority 2008, published 2010)",
  "type_in_all_cases": "physicochemical",
  "key": {"[1]": {"assay": "Brilliant Green-Chlorhexidine formulation in THF/Methanol solvent mixture, observation of solution", "details": "with BG, room temperature", "procedure": "1.04 g Tecoflex 60D and 3.28 g Tecoflex 93A in 65 g were added in a glass jar containing 65 g of Tetrahydrofuran and stirred for four (4) hours at 45° C. Once all resin solids have dissolved, 23 g methanol added into the mixture and stirred for one (1) hour. 2.939 g chlorhexidine diacetate (CHA) was added into the solution mixture and stirred overnight at room temperature. Different Brilliant green (BG) concentrations (0.1 wt %-1.0 wt %) were added per the Table 4 below to an aliquot of the polymer-CHA solution and stirred until Brilliant Green dissolved:\nTable 5 below lists different formulations of BG and CHA."}, "[2]": {"assay": "Brilliant Green-Chlorhexidine formulation in DMF/THF solvent mixture, observation of solution", "details": "40/60 THF/DMF, with BG, room temperature", "procedure": "In this experiment 40/60 THF/DMF solvent mixture was used instead of THF/Methanol from Example 17. Different Brilliant green (BG) concentrations (0.1 wt %-1.0 wt %) were added per the Table 5 below to an aliquot of the polymer-CHA solution (in Example 17) and stirred until Brilliant Green dissolved: […]"}, "[3]": {"assay": "CHA stability in polyurethane films after ethylene oxide (ETO) sterilization", "details": "polyurethane films containing only CHA", "procedure": "(§1) Degradation is reported in the following examples as measured by HPLC as peak area of the degradant peak divided by the total peak area of the chlorhexidine peak and the degradant peak (i.e. Peak Areadegradant/[Peak Areadegradant+Peak Areachlorhexidine]*100). The peak areas are determined from integration of chromatograms.\n(§2) A high pressure liquid chromatography (HPLC) analytical method was developed to quantify Gentian violet and chlorhexidine. Both compounds have ultraviolet or visible wavelength absorbance, and so were characterized using a UV-Vis diode array detector. Chlorhexidine and Gentian violet are identified by retention times versus a set of external standards. The external standards also form a calibration curve that is used to quantify the chlorhexidine and Gentian violet content in samples. The method is summarized as follows:\nThe sample preparation method, prior to HPLC analysis, is summarized as follows: samples were placed in centrifuge tubes, to which a volume of tetrahydrofuran (THF) was added (according to cited protocols or per examples). The tubes were vortexed until the sample was completely dissolved. For samples used as medical device coatings where a polymer was also present, a volume of deionized water was then added and the tubes were again vortexed for 10 minutes to precipitate the any polymer in the sample. […]"}, "[4]": {"assay": "CHA stability in polyurethane films containing no GV (HPLC)", "details": "vacuum dried and humidified films, 25, 35, 45, 55° C., 20 day incubation", "procedure": "as §1, §2\nThe sample preparation method, prior to HPLC analysis, is summarized as follows: samples were placed in centrifuge tubes, to which a volume of tetrahydrofuran (THF) was added (according to cited protocols or per examples). The tubes were vortexed until the sample was completely dissolved. […]\nSamples were analyzed post air drying and post 20 day incubation. […]"}, "[5]": {"assay": "GV stability in polyurethane films containing no CHA (HPLC)", "excerpt": "as §2\nThe sample preparation method, prior to HPLC analysis, is summarized as follows: samples were placed in centrifuge tubes, to which a volume of tetrahydrofuran (THF) was added (according to cited protocols or per examples). The tubes were vortexed until the sample was completely dissolved. For samples used as medical device coatings where a polymer was also present, a volume of deionized water was then added and the tubes were again vortexed for 10 minutes to precipitate the any polymer in the sample. The tubes were then centrifuged for 10 minutes at 4000 RPM to spin the polymer down out of the solution. A small amount of supernatant was transferred to an HPLC vial for analysis.\nPolyurethane films, used in the studies described in examples 4-6 and 9-11, were prepared as follows: 500 g of coating solution was prepared by dissolving 3.74% (w/w) Tecoflex 93A resin and 1.17% (w/w) Tecoflex 60D resin in a 74/26% mixture of THF/Methanol. The mixture was stirred until all of the resin was completely dissolved. 3.07% (w/w) chlorhexidine diacetate (CHA) was then added to the coating solution. Solutions containing different concentrations of GV were made by adding 0.1, 0.2, 0.4, 0.6, 0.8 or 1.0% (w/w) GV to 50 g aliquots of the CHA containing coating solution (or resin only solution in the case of GV only coating solution). 0.5 g of the CHA only, GV only, or 0.1-1.0% GV/CHA solutions was added to the bottom of a 30 mL glass vial and allowed to dry under ambient conditions overnight to evaporate the solvent and cast films in the vials. Vacuum dried samples were prepared by further drying the film containing vials at 25° C. under 30 in, Hg for 48 hours. Humidified samples were prepared by adding 75 μL of deionized water to the air dried samples and capping for the duration of the studies.\nGentian violet only films were prepared according to example 2. Half of the vials were then spiked with 75 μL of deionized water and capped to create a 100% humidity environment, while the other half were vacuum dried ([…]) at 25° C. for 48 hours. The vials were then incubated in an oven at 25° C., 35° C., 45° C., and 55° C. for 20 days.\nSamples were analyzed post air drying and post 20 day incubation. Sample analysis was performed using the method in Example 1.\nPeak area ratios for pararosaniline chlorides are shown in Table 3 at different temperatures for 20 days. The peak area ratios for each temperature are calculated as follows: (Individual peak area)/Σ(individual peak)×100%. The variations are within the limits of experimental error further confirming the stability of GV in polyurethane films containing only GV."}},
  "data": [
    {"smiles": "CC(=O)O.CC(=O)O.NC(=N\\CCCCCC/N=C(N)/N=C(\\N)Nc1ccc(Cl)cc1)/N=C(\\N)Nc1ccc(Cl)cc1", "note": "[CHA, chlorhexidine diacetate]", "values": [
      {"measurement": "stirring time after which chlorhexidine diacetate precipitated", "setting": "[1]", "result": 30, "unit": "min"},
      {"measurement": "stirring time after which chlorhexidine diacetate precipitated", "setting": "[2]", "result": 30, "unit": "min"},
      {"measurement": "stability when ETO sterilized", "setting": "[3]", "result": "stable when sterilized"},
      {"measurement": "degradation peaks in the chromatograms", "setting": "[4]", "result": "no degradation peaks"}
    ]},
    {"smiles": "CN(C)c1ccc(C(=C2C=CC(=[N+](C)C)C=C2)c2ccc(N(C)C)cc2)cc1", "note": "[GV, hexa-methyl pararosaniline chloride, reference compound]", "values": [
      {"measurement": "degradation products detected in the chromatograms", "setting": "[5]; vacuum dried and humidified GV only films, 25-55° C., 20 days", "result": "no degradation products were detected"}
    ]},
    {"smiles": "CN(C)c1ccc(C(=C2C=CC(=[N+](C)C)C=C2)c2ccc(N(C)C)cc2)cc1.[Cl-]", "note": "[Hexamethyl, hexamethylpararosaniline chloride]", "values": [
      {"measurement": "Peak area ratio for pararosaniline chlorides", "setting": "[5]; 0 day control", "result": 42, "unit": "%"},
      {"measurement": "Peak area ratio for pararosaniline chlorides", "setting": "[5]; 25° C. at day 20", "result": 43, "unit": "%"},
      {"measurement": "Peak area ratio for pararosaniline chlorides", "setting": "[5]; 35° C. at day 20", "result": 44, "unit": "%"},
      {"measurement": "Peak area ratio for pararosaniline chlorides", "setting": "[5]; 45° C. at day 20", "result": 42, "unit": "%"},
      {"measurement": "Peak area ratio for pararosaniline chlorides", "setting": "[5]; 55° C. at day 20", "result": 45, "unit": "%"}
    ]},
    {"smiles": "CN=C1C=CC(=C(c2ccc(N(C)C)cc2)c2ccc(N(C)C)cc2)C=C1.Cl", "note": "[Pentamethyl, pentamethylpararosaniline chloride]", "values": [
      {"measurement": "Peak area ratio for pararosaniline chlorides", "setting": "[5]; 0 day control", "result": 44, "unit": "%"},
      {"measurement": "Peak area ratio for pararosaniline chlorides", "setting": "[5]; 25° C. at day 20", "result": 43, "unit": "%"},
      {"measurement": "Peak area ratio for pararosaniline chlorides", "setting": "[5]; 35° C. at day 20", "result": 43, "unit": "%"},
      {"measurement": "Peak area ratio for pararosaniline chlorides", "setting": "[5]; 45° C. at day 20", "result": 44, "unit": "%"},
      {"measurement": "Peak area ratio for pararosaniline chlorides", "setting": "[5]; 55° C. at day 20", "result": 43, "unit": "%"}
    ]},
    {"smiles": "CN(C)c1ccc(C(=C2C=CC(=[N+](C)C)C=C2)c2ccc(N)cc2)cc1.[Cl-]", "note": "[Tetramethyl, tetramethylpararosaniline chloride]", "values": [
      {"measurement": "Peak area ratio for pararosaniline chlorides", "setting": "[5]; 0 day control", "result": 14, "unit": "%"},
      {"measurement": "Peak area ratio for pararosaniline chlorides", "setting": "[5]; 25° C. at day 20", "result": 14, "unit": "%"},
      {"measurement": "Peak area ratio for pararosaniline chlorides", "setting": "[5]; 35° C. at day 20", "result": 13, "unit": "%"},
      {"measurement": "Peak area ratio for pararosaniline chlorides", "setting": "[5]; 45° C. at day 20", "result": 14, "unit": "%"},
      {"measurement": "Peak area ratio for pararosaniline chlorides", "setting": "[5]; 55° C. at day 20", "result": 12, "unit": "%"}
    ]}
  ]
}
